{"source": "paper PMC4945539", "about": "(Mycobiology, 2016)", "target": "neuraminidase", "test": "Inhibition kinetics", "format": "biochemical, influenza virus", "details": "decrease in Vmax while Km remained stable", "data": [{"smiles": "CC1=CC(=O)C2(O1)C(c1cc3oc(=O)c4cc(O)c(O)cc4c3c(=O)o1)=Cc1cc(O)c(O)cc12", "note": "(centres unmarked) [compound 1, phelligridin E]", "values": [{"measurement": "Kinetic mode", "result": "noncompetitive"}]}, {"smiles": "O=C1C=C(/C=C/c2ccc(O)c(O)c2)OC12C(c1cc3oc(=O)c4cc(O)c(O)cc4c3c(=O)o1)=Cc1cc(O)c(O)cc12", "note": "(centres unmarked) [compound 2, phelligridin G]", "values": [{"measurement": "Kinetic mode", "result": "noncompetitive"}]}]}
